# Where two headings read alike, the source gives them in different places.
# Experiments:
# ENPP-1 ECD [1] = target: T1, ENPP-1 ECD (Homo sapiens (Human), UniProt P22413); test: Assay 2: inhibition of ENPP1 hydrolysis of 2′,3′-cGAMP (AMP-Glo, […] enzyme)
# Procedure: Assay 2: Compared to the conditions in Assay 1, this assay has a larger dynamic range and ensures the system is under steady-state conditions by reducing the enzyme concentration in the assay.
# Test compounds were plated in a 3× dilution scheme in a 384 well plate. […] AMP Detection solution (10 μL) was added to each well, the plate centrifuged and incubated for 60 min.
# ENPP-1 ECD [2] = target: T1, ENPP-1 ECD; test: Assay 1: inhibition of ENPP1 hydrolysis of 2′,3′-cGAMP (AMP-Glo, […] enzyme)
# Procedure: Assay 1: Test compounds were plated in a 3× dilution scheme in a 384 well plate. […] AMP Detection solution (100 μL) was added to each well, the plate centrifuged and incubated for 60 min.
# [3] = Assay 2 (KI), ENPP1 hydrolysis of 2′,3′-cGAMP, AMP-Glo, […] ENPP-1, 24 μM cGAMP
# [4] = Assay 2 (KI), inhibition of ENPP1 hydrolysis of 2′,3′-cGAMP, no unit in Table 18 (Table 17 legend for this assay uses nM)
# [5] = Assay 1 (IC50), ENPP1 hydrolysis of 2′,3′-cGAMP, AMP-Glo
# [6] = Assay 1 (IC50), inhibition of ENPP1 hydrolysis of 2′,3′-cGAMP, no unit in Table 18 (Table 17 legend for this assay uses nM)
# [7] = read-out: Assay 1 (IC50), ENPP1 hydrolysis of 2′,3′-cGAMP, AMP-Glo
# [8] = read-out: Assay 2 (KI), ENPP1 hydrolysis of 2′,3′-cGAMP, AMP-Glo, […] ENPP-1, 24 μM cGAMP
# [9] = read-out: Assay 2 (KI), inhibition of ENPP1 hydrolysis of 2′,3′-cGAMP, no unit in Table 18 (Table 17 legend for this assay uses nM)
# [10] = read-out: Assay 1 (IC50), inhibition of ENPP1 hydrolysis of 2′,3′-cGAMP, no unit in Table 18 (Table 17 legend for this assay uses nM)
# T1 sequence (P22413 98-925): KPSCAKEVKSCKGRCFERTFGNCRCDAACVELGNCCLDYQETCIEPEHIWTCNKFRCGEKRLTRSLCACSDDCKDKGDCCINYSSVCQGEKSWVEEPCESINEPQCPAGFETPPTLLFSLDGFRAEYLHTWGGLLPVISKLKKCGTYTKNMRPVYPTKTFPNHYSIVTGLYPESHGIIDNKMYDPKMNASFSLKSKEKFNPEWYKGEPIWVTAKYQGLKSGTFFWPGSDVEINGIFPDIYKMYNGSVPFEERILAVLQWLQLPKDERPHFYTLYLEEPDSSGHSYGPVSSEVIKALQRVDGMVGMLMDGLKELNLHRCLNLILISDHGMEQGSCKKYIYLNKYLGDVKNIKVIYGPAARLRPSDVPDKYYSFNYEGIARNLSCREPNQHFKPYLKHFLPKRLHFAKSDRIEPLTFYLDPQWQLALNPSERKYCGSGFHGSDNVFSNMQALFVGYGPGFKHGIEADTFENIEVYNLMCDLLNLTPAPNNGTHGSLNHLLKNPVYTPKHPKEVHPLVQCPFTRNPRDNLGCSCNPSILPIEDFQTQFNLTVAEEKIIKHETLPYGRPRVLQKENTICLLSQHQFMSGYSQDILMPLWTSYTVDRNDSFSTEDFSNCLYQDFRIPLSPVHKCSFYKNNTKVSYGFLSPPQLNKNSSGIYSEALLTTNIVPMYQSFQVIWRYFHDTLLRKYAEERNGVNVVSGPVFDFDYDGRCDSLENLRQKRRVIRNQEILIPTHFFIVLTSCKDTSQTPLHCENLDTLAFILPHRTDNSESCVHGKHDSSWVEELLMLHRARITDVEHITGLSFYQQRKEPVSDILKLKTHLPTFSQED
Compound,Ki (ENPP-1 ECD [1]; [3]) [nM],Ki (ENPP-1 ECD [1]; [4]) [nM],IC50 (ENPP-1 ECD [2]; [5]) [nM],IC50 (ENPP-1 ECD [2]; [6]) [nM],IC50 (ENPP-1 ECD [2]; [7]) [nM],Ki (ENPP-1 ECD [1]; [8]) [nM],Ki (ENPP-1 ECD [1]; [9]) [nM],IC50 (ENPP-1 ECD [2]; [10]) [nM]
"COc1cc2ncnc(-c3ccc(CCS(C)(=N)=O)cc3)c2cc1OC (stereo not drawn) [Compound 153, {2-[4-(6,7-dimethoxyquinazolin-4-yl)phenyl]ethyl}(imino)methyl-λ^6-sulfanone]",3 to 300,12,10 to 1000,54,–,–,–,–
"COc1cc2ncnc(OCc3ccc(S(C)(=N)=O)cc3)c2cc1OC (stereo not drawn) [Compound 14, (4-(((6,7-dimethoxyquinazolin-4-yl)oxy)methyl)phenyl)(imino)(methyl)-λ^6-sulfanone]",3 to 300,15,10 to 1000,110,–,–,–,–
"CS(=N)(=O)CCC1CCN(c2ccnc3ccccc23)CC1 (stereo not drawn) [Compound 149, imino(methyl){2-[1-(quinolin-4-yl)piperidin-4-yl]ethyl}-λ^6-sulfanone]",> 300,410,–,1400,> 1000,–,–,–
"COc1cccc2c(Oc3ccc(S(C)(=N)=O)cc3)ccnc12 (stereo not drawn) [Compound 118, imino({4-[(8-methoxyquinolin-4-yl)oxy]phenyl})methyl-λ^6-sulfanone]",3 to 300,36,10 to 1000,160,–,–,–,–
"COc1cccc2c(N3CCC(CCS(C)(=N)=O)CC3)ccnc12 (stereo not drawn) [Compound 140, imino({2-[1-(8-methoxyquinolin-4-yl)piperidin-4-yl]ethyl})methyl-λ^6-sulfanone]",3 to 300,180,10 to 1000,880,–,–,–,–
"CS(=N)(=O)c1ccc(Oc2cnnc3ccccc23)cc1 (stereo not drawn) [Compound 22, (4-(cinnolin-4-yloxy)phenyl)(imino)(methyl)-λ^6-sulfanone]",> 300,310,–,1200,> 1000,–,–,–
"COc1cc2nccc(Oc3ccc(S(C)(=N)=O)cc3F)c2cc1OC (stereo not drawn) [Compound 116, {4-[(6,7-dimethoxyquinolin-4-yl)oxy]-3-fluorophenyl}(imino)methyl-λ^6-sulfanone]",3 to 300,25,10 to 1000,220,–,–,–,–
"COc1ccc2c(Oc3ccc(S(C)(=N)=O)cc3)cnnc2c1 (stereo not drawn) [Compound 119, imino({4-[(7-methoxycinnolin-4-yl)oxy]phenyl})methyl-λ^6-sulfanone]",3 to 300,17,10 to 1000,66,–,–,–,–
"COc1ccc2c(N3CCC(CCS(C)(=N)=O)CC3)ncnc2c1OC (stereo not drawn) [Compound 165, (2-(1-(7,8-dimethoxyquinazolin-4-yl)piperidin-4-yl)ethyl)(imino)(methyl)-l6-sulfanone]",> 300,1400,–,> 30000,> 1000,–,–,–
"COc1ccc2c(Oc3ccc(CS(C)(=N)=O)cc3)ccnc2c1 (stereo not drawn) [Compound 79, imino(4-((7-methoxyquinolin-4-yl)oxy)benzyl)(methyl)-λ^6-sulfanone]",3 to 300,220,10 to 1000,740,–,–,–,–
"COc1ccc2c(N3CCC(CCS(C)(=N)=O)CC3)ccnc2c1 (stereo not drawn) [Compound 69, imino(2-(1-(7-methoxyquinolin-4-yl)piperidin-4-yl)ethyl)(methyl)-λ^6-sulfanone]",3 to 300,10,10 to 1000,55,–,–,–,–

# Second part, the compound after the results:
Ki (ENPP-1 ECD [1]; [3]) [nM],Ki (ENPP-1 ECD [1]; [4]) [nM],IC50 (ENPP-1 ECD [2]; [5]) [nM],IC50 (ENPP-1 ECD [2]; [6]) [nM],IC50 (ENPP-1 ECD [2]; [7]) [nM],Ki (ENPP-1 ECD [1]; [8]) [nM],Ki (ENPP-1 ECD [1]; [9]) [nM],IC50 (ENPP-1 ECD [2]; [10]) [nM],Compound
–,–,–,–,> 1000,> 300,450,1600,CC[S@@](=N)(=O)c1ccc(Oc2ccnc3cc(OC)ccc23)cc1 [Compound 103a]
–,–,–,–,10 to 1000,3 to 300,7.3,45,COc1ccc2c(N3CCC4(CC3)CCN([S@@](C)(=N)=O)C4)ccnc2c1 [Compound 55b]
–,–,–,–,> 1000,3 to 300,49,> 100,COc1ccc2c(OCc3cccc([S@](C)(=N)=O)c3)ccnc2c1 [Compound 133b]
–,–,–,–,> 1000,> 300,350,1900,COc1cc2ncc(C#N)c(Oc3ccc([S@](C)(=N)=O)cc3)c2cc1F [Compound 44b]
